Reference: ChEMBL document CHEMBL1201862, “PubChem BioAssay data set” (2004)
Active and inactive are the calls of the source.

What was measured:
[1] = molecular target: T1, Kappa-type opioid receptor (Homo sapiens, UniProt P41145); assay: kappa opioid receptor blockers, image-based, SAR follow-up (AID 2348); assay type: functional
[2] = molecular target: T1, Kappa-type opioid receptor; assay: kappa opioid receptor activation by imaging – image-based, set 3, SAR follow-up (AID 488833); assay type: functional
[3] = molecular target: T2, Delta-type opioid receptor (Homo sapiens, UniProt P41143); assay: SAR Analysis of Agonists of the DOR Receptor using an Image-Based Assay - Set 3. [Related pubchem assays (depositor defined):AID1777, AID1786]; assay type: functional
T2 sequence (P41143 whole entry): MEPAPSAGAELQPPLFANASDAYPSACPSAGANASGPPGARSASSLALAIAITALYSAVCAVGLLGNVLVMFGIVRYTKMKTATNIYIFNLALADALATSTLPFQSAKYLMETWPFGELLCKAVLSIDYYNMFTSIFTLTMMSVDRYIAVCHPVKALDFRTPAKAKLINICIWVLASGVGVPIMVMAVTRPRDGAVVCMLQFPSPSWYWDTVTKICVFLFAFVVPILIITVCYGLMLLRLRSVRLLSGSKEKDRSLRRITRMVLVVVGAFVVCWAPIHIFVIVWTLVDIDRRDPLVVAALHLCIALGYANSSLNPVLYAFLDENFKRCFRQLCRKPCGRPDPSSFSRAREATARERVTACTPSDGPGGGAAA

[4] = molecular target: T3, Mu-type opioid receptor (Homo sapiens, UniProt P35372); assay: mu opioid receptor activators, image-based, SAR follow-up (AID 2352); assay type: functional
T3 sequence (P35372 whole entry): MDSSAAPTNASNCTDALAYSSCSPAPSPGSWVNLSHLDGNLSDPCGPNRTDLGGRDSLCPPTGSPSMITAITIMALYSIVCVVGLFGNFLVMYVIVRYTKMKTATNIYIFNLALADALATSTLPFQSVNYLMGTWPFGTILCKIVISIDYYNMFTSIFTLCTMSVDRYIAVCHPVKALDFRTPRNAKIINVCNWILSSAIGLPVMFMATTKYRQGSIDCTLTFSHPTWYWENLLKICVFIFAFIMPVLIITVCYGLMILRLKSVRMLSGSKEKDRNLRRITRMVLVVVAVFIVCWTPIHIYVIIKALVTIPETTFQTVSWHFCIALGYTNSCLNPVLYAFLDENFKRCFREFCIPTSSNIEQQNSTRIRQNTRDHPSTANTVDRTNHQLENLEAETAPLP

[5] = molecular target: T3, Mu-type opioid receptor; assay: mu opioid receptor blockers – image-based, SAR follow-up (AID 2420); assay type: functional;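 further: compounds added before stimulation of receptor with agonist DAMGO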
[6] = molecular target: T2, Delta-type opioid receptor; assay: DOR agonists, SAR follow-up, image-based (AID 2370); assay type: functional
[7] = molecular target: T1, Kappa-type opioid receptor; assay: SAR analysis of small molecule agonists of the kappa opioid receptor via a luminescent beta-arrestin assay. [Related pubchem assays (depositor defined):AID1777, AID1786, AID1966, AID2133, AID2136, AID2348, AID2352, AID2357, AID2359, AID2370, AID2420, AID2478, AID2491, AID2492, AID2493, AID2497, AID2498, AID2500, AID449737, AID488822, AID488842]; assay type: functional
[8] = molecular target: T1, Kappa-type opioid receptor; assay: SAR analysis of small molecule agonists of the kappa opioid receptor via a luminescent beta-arrestin assay - Set 3. [Related pubchem assays (depositor defined):AID1777, AID1785, AID1786, AID1966, AID2133, AID2136, AID2284, AID2500]; assay type: functional
[9] = molecular target: T2, Delta-type opioid receptor; assay: delta opioid receptor blockers – image-based, SAR follow-up (AID 2357); assay type: functional
[10] = molecular target: T1, Kappa-type opioid receptor; assay: kappa opioid receptor activation potency – imaging, image-based, SAR follow-up (AID 2359); assay type: functional
[11] = molecular target: T3, Mu-type opioid receptor; assay: SAR Analysis of Agonists of the MOR Receptor using an Image-Based Assay - Set 3. [Related pubchem assays (depositor defined):AID1777, AID1785, AID1786, AID1966, AID2133, AID2136, AID2284, AID2285, AID2352]; assay type: functional
[12] = molecular target: Apelin receptor (Homo sapiens, UniProt P35414); assay: apelin receptor antagonists, arrestin read-out – cell-based, luminescent, enzyme-fragment complementation, selectivity assay for CCR6 antagonist project, SAR follow-up (AID 588359); assay type: functional
[13] = molecular target: Serine/threonine-protein phosphatase PP1-alpha catalytic subunit (Homo sapiens, UniProt P62136); assay: inhibition of protein phosphatase 1 activity – biochemical, fluorescence, dose response (AID 2403);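 further: phosphatase turnover of OMFP into fluorescent 3-O-methylfluorescein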
[14] = molecular target: T4, Dual specificity protein phosphatase 6 (Rattus norvegicus, UniProt Q64346); assay: inhibition of rat DUSP6 enzyme activity – biochemical, in vitro, primary screen (AID 425)
T4 sequence (Q64346 whole entry): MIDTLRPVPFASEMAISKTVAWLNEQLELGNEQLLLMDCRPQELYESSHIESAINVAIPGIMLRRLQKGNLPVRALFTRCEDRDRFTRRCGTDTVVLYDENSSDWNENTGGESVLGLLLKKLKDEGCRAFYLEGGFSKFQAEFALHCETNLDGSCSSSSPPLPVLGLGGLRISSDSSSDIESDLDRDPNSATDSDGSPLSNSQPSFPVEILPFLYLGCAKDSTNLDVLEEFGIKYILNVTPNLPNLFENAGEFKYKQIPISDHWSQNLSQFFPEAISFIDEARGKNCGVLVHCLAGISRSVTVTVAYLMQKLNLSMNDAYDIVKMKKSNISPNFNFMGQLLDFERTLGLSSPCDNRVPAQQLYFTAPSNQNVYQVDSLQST

[15] = molecular target: T5, Serine/threonine-protein phosphatase (Homo sapiens, UniProt Q9BPW0); assay: Counterscreen for inhibitors of PP1: fluorescence-based biochemical high throughput dose response assay to identify inhibitors of Protein Phosphatase 5 (PP5). [Related pubchem assays: 2034 (Summary (PP5 inhibitors)), 1987 (PP5 inhibitors in singlate), 2235 (PP1 inhibitors in singlate)]
T5 sequence (Q9BPW0 whole entry): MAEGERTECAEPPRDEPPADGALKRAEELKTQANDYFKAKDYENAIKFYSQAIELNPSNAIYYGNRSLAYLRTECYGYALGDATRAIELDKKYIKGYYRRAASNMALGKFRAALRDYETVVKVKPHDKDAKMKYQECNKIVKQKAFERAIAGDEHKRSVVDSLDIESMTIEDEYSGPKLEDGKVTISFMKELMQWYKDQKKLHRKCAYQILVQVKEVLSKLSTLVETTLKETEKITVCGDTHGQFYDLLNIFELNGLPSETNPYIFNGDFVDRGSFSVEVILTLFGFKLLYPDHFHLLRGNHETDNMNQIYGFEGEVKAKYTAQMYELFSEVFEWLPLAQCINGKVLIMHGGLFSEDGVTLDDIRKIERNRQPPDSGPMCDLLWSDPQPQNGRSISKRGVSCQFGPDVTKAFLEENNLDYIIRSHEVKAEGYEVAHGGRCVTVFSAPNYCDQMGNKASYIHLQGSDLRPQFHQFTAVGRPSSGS

[16] = molecular target: T6, Voltage-gated N-type calcium channel alpha-1B subunit/Amyloid beta A4 precursor protein-binding family A member 1 (Homo sapiens, UniProt Q00975+Q02410); assay type: protein assay
T6 sequence (Q00975 whole entry): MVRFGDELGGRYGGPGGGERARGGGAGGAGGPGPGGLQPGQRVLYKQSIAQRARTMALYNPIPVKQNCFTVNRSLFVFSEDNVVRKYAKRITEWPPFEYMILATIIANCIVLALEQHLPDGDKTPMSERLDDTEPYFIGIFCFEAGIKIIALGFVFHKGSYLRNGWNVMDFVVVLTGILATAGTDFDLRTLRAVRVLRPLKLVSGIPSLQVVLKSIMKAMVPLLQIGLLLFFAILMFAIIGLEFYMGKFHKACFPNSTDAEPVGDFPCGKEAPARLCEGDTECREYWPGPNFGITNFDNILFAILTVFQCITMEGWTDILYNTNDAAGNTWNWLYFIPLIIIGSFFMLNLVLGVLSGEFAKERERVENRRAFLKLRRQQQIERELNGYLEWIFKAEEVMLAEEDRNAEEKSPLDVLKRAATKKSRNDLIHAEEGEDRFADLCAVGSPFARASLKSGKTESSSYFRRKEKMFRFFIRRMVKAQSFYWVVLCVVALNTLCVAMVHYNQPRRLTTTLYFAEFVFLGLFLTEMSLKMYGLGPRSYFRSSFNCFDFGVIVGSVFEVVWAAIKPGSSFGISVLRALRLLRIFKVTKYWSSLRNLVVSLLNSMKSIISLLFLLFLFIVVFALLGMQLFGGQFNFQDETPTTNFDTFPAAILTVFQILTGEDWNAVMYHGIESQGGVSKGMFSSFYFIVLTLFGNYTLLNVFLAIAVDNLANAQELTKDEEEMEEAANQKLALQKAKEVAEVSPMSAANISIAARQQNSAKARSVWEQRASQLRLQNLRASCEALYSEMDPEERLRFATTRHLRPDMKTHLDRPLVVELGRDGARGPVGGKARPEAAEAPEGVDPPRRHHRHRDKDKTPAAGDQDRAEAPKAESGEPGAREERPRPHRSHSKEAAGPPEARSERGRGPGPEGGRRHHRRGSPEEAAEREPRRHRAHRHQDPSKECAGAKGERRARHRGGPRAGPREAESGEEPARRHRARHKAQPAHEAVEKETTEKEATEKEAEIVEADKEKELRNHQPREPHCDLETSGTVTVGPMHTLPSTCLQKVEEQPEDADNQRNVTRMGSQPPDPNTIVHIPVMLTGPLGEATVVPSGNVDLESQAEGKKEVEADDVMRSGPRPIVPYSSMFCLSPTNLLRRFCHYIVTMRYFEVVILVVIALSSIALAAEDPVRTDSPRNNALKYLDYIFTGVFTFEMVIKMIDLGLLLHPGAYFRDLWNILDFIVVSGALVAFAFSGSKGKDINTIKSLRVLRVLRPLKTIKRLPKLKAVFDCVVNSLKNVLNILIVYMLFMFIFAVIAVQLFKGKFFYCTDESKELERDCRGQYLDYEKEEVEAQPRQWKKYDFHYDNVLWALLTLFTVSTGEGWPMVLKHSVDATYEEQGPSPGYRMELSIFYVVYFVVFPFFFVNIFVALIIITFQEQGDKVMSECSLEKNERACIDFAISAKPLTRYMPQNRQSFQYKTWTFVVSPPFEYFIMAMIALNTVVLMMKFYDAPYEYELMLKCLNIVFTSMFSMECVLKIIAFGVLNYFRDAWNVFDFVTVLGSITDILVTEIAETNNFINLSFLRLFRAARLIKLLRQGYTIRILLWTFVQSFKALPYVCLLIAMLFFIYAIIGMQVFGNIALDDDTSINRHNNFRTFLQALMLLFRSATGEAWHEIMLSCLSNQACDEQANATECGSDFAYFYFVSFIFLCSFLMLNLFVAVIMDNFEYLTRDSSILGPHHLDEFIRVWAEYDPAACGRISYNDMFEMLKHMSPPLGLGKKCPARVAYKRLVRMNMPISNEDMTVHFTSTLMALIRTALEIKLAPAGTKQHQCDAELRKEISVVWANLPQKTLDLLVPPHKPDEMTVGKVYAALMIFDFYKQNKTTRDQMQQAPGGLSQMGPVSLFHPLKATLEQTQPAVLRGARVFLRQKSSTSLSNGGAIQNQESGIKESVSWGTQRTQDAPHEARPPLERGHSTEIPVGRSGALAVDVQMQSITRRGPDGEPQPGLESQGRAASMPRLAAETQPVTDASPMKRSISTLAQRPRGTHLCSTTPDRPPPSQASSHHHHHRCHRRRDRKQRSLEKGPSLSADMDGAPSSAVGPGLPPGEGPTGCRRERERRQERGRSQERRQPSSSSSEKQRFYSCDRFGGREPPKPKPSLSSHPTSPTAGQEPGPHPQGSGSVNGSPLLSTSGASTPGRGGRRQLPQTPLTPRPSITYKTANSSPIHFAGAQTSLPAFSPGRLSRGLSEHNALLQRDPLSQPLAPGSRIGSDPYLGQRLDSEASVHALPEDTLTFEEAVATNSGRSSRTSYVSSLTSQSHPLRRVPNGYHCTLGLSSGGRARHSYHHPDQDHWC
T6 sequence (Q02410 whole entry): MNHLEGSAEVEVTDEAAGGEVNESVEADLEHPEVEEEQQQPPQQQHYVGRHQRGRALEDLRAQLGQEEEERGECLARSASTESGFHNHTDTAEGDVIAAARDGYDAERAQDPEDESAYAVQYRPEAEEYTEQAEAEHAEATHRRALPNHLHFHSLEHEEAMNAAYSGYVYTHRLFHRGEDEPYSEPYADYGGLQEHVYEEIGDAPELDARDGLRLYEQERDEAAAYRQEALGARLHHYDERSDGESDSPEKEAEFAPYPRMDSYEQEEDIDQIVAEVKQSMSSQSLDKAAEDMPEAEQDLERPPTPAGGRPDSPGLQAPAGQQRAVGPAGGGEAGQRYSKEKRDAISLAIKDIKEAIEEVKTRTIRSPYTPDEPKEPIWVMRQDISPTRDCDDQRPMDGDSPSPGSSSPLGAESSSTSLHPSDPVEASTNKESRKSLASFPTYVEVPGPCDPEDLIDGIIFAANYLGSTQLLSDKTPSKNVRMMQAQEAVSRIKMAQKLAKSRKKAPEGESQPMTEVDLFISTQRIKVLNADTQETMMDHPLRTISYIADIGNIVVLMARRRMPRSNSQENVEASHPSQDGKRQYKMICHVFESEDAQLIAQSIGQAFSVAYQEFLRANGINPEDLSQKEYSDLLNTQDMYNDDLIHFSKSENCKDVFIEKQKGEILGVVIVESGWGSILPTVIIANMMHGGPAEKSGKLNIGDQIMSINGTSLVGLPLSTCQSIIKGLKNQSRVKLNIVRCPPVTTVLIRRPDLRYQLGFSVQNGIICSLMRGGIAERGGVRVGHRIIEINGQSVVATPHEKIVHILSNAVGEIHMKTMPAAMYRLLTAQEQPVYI

[17] = molecular target: T7, Dual specificity protein phosphatase 3 (Homo sapiens, UniProt P51452); assay: VHR1 phosphatase inhibitors, primary screen, biochemical, absorbance, uHTS (AID 1654)
T7 sequence (P51452 whole entry): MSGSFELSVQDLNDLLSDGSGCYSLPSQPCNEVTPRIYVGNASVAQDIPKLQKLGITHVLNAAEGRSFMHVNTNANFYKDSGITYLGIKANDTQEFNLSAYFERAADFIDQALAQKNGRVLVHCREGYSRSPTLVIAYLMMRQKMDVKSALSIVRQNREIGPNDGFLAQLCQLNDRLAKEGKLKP

[18] = molecular target: T8, Zinc finger protein mex-5 (Caenorhabditis elegans, UniProt Q9XUB2); assay: potency of MEX-5 RNA-binding blockers – biochemical, C. elegans, fluorescence polarization, dose response (AID 1960)
T8 sequence (Q9XUB2 whole entry): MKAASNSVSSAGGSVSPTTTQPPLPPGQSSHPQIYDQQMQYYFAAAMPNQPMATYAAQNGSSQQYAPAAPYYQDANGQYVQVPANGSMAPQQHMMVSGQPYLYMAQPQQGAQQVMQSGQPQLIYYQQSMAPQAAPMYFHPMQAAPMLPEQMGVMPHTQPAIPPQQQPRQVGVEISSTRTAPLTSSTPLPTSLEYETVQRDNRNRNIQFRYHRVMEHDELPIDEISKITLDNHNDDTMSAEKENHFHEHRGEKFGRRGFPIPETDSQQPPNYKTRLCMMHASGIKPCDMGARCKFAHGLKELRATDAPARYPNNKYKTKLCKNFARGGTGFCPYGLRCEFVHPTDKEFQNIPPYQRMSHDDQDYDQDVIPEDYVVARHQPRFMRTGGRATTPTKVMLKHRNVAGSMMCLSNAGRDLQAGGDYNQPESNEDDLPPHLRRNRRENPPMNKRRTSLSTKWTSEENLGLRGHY

[19] = molecular target: T6, Voltage-gated N-type calcium channel alpha-1B subunit/Amyloid beta A4 precursor protein-binding family A member 1; assay type: protein assay; remark: listed apart in the source
[20] = molecular target: T7, Dual specificity protein phosphatase 3; assay: VHR1 phosphatase inhibitors, biochemical (AID 1878)
[21] = molecular target: CAAX prenyl protease 1 (Saccharomyces cerevisiae S288c, UniProt P47154); assay: yeast CAAX protease Ste24 inhibition – biochemical, S. cerevisiae, plate reader, cherry-pick, dose response (AID 488815)
Chain of CAAX prenyl protease 1 (P47154 whole entry): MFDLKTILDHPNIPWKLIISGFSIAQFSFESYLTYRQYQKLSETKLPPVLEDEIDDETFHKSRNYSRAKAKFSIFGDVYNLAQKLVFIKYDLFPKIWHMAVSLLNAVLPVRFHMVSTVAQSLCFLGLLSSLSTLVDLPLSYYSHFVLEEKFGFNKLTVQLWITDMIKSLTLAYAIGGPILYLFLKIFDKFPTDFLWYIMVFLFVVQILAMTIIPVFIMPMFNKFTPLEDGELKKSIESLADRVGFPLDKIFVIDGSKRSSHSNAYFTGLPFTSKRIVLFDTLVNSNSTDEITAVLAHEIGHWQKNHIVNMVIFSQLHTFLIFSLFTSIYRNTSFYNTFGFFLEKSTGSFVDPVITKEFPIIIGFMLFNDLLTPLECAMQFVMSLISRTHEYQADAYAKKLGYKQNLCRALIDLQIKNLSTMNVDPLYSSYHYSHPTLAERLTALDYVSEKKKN

[22] = molecular target: Trypsin (Sus scrofa, UniProt P00761); assay: trypsin protease activity blockade – biochemical, quenched peptide fluorescence, cherry-pick, selectivity assay for Rce1 protease inhibitor project, dose response (AID 488789)
[23] = restored growth of temperature-sensitive Burl-1 yeast – whole organism, S. cerevisiae, Burl-1 ts mutant, luminescence, counter-screen for SUMOylation pathway inhibitor project, dose response (AID 463199); assay type: functional
[24] = molecular target: T2, Delta-type opioid receptor; assay: HTS Image-Based Screen for Agonists of the DOR Receptor. [Related pubchem assays (depositor defined):AID1777, AID1786, AID2133]; assay type: functional
[25] = molecular target: T1, Kappa-type opioid receptor; assay type: functional
[26] = molecular target: T3, Mu-type opioid receptor; assay: HTS Image-Based Screen for Agonists of the MOR Receptor. [Related pubchem assays (depositor defined):AID1777, AID1785, AID1786, AID2133]; assay type: functional
[27] = molecular target: T2, Delta-type opioid receptor; assay: HTS Image-Based Screen for Antagonists of the DOR Receptor. [Related pubchem assays (depositor defined):AID1777, AID1785, AID1786, AID2133]; assay type: functional
[28] = molecular target: T9, Short transient receptor potential channel 4 (Mus musculus, UniProt Q9QUQ5); assay: block of DAMGO-driven TRPC4 calcium entry – cell-based, HEK293 TRPC4/mu-opioid, Fluo-4 calcium, dose response (AID 434942); assay type: functional;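 further: potency of inhibitors blocking the TRPC4 calcium response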
T9 sequence (Q9QUQ5 whole entry): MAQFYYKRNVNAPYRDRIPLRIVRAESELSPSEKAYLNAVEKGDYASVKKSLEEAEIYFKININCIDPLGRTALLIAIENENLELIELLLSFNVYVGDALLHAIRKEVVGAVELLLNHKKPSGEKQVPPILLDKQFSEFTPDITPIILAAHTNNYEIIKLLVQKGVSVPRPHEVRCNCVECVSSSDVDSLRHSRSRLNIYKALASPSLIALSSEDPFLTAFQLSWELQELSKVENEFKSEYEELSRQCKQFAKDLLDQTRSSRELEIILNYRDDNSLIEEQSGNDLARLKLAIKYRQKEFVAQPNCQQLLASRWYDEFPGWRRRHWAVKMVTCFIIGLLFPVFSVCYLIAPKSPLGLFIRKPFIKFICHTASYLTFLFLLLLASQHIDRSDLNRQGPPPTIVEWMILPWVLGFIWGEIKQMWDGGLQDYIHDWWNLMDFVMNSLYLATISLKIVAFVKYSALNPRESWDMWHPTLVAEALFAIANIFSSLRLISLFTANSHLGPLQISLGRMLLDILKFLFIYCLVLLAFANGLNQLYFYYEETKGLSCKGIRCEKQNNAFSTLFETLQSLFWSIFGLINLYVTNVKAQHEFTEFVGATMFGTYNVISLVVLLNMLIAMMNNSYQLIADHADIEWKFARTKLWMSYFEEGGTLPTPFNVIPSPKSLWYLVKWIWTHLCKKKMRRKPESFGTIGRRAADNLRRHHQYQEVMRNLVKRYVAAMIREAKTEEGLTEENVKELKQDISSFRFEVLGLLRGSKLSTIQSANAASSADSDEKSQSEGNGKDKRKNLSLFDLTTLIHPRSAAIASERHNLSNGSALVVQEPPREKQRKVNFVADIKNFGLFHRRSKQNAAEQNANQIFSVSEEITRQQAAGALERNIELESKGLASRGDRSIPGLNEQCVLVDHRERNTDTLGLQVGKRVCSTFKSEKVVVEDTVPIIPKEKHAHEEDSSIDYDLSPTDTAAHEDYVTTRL

[29] = molecular target: T1, Kappa-type opioid receptor; assay type: functional; remark: listed apart in the source
[30] = molecular target: T10, Mannose-6-phosphate isomerase (Homo sapiens, UniProt P34949); assay: phosphomannose isomerase inhibition – biochemical, fluorescence intensity, confirmation (AID 1535)
T10 sequence (P34949 whole entry): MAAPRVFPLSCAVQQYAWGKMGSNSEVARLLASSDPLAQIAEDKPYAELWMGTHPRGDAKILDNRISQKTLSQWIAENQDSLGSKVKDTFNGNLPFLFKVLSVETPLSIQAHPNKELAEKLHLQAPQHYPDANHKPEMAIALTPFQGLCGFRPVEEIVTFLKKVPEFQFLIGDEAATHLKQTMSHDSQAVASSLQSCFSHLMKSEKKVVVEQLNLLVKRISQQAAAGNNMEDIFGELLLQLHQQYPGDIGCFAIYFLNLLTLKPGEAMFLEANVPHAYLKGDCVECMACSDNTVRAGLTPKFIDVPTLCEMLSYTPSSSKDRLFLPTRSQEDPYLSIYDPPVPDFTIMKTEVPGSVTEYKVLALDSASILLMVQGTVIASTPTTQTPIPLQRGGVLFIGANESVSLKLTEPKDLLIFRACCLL

[31] = molecular target: Phosphomannomutase 2 (Homo sapiens, UniProt O15305); assay: Counter screen SAR assay for PMM2 inhibitors via a fluorescence intensity assay. [Related pubchem assays (depositor defined):AID1545, AID1574]

T1 sequence (P41145 whole entry): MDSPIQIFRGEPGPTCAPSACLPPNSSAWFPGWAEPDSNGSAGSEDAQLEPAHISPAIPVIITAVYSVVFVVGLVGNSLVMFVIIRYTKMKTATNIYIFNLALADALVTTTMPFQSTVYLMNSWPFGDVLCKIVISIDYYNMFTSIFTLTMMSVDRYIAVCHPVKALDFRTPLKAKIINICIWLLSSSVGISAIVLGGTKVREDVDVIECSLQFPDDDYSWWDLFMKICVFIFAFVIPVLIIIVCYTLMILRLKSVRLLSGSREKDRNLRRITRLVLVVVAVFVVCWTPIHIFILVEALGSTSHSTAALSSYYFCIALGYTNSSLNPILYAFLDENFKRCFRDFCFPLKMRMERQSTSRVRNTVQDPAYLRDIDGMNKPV

Compound: Clc1ccccc1CSc1nnc(-c2ccccn2)n1Cc1ccco1
- IC50 [1]: > 32 µM (inactive)
- EC50 [2]: 11.6 µM (inactive)
- EC50 [3]: > 64 µM (inactive)
- EC50 [4]: > 32 µM (inactive)
- IC50 [5]: > 32 µM (inactive)
- EC50 [6]: > 32 µM (inactive)
- EC50 [7]: > 10 µM (inactive)
- EC50 [8]: 9.07 µM (active)
- IC50 [9]: > 32 µM (inactive)
- EC50 [10]: 10.4 µM (active)
- EC50 [11]: > 32 µM (inactive)

Compound: C/C(=N\Nc1ccc2ccccc2n1)c1ccccc1O
- IC50 [12]: 4.12 µM (active)

Compound: O=C1NC(=S)N(c2ccc(F)cc2)C(=O)/C1=C/c1ccco1
- IC50 [13]: 8.21 µM (active)
- IC50 [14]: 1.36 µM (active)
- IC50 [15]: > 67 µM (not active)
- IC50 [16]: 3.33 µM (active)
- IC50 [17]: < 1.23 µM (inactive)
- EC50 [18]: 11.1 µM (active)
- IC50 [19]: 4.45 µM (active)
- IC50 [20]: < 1.23 µM (inactive)

Compound: COc1cccc(C2CC3=Nc4ccccc4N(C(=O)CCC(=O)O)C(c4ccc(F)cc4)C3=C(O)C2)c1 (stereo unspecified)
- AC50 [21]: 21.6 µM (active)
- AC50 [22]: 12 µM (active)

Compound: S=C(NCCc1c[nH]c2ccccc12)NC1CC1
- AC50 [23]: 51 µM (active)

Compound: Cc1cccc(-n2ccnc2CN2CCC(CO)(Cc3ccccc3)CC2)c1
- EC50 [24]: > 32 µM (inactive)
- EC50 [25]: 5.69 µM
- EC50 [26]: > 32 µM (inactive)
- IC50 [27]: > 32 µM (inactive)
- EC50 [28]: 1.68 µM (active)
- EC50 [29]: 4.15 µM

Compound: O=C1c2ccccc2SC1c1ccccc1 (stereo unspecified)
- IC50 [30]: > 100 µM (inactive)
- IC50 [31]: > 100 µM (inactive)
